According to patent US7329655B2, “Nitrogenous heterocyclic compounds” (Millennium Pharmaceuticals, Inc., priority 2000, dated 2008):

Key:
human β-PDGFR = biological target: T1, human β-PDGFR (Homo sapiens, UniProt P09619); assay: HR5 phosphorylation assay; type: cell-based; conditions: HR5 cells (CHO overexpressing human β-PDGFR), 8 nM PDGF BB; inhibition of PDGF receptor phosphorylation
T1 construct: host or cells: CHO cells (HR5 line)
Procedure: The HR5 cell line is a cell line of CHO cells engineered to overexpress human β-PDGFR, which cell line is available from the ATCC. The expression level of β-PDGFR in HR5 cells is around 5×10^4 receptor per cell. For the phosphorylation assay according to the invention, HR5 cells were grown to confluency in 96-well microtiter plates under standard tissue culture conditions, followed by serum-starvation for 16 hours. Quiescent cells were incubated at 37° C. without or with increasing concentrations of the test compound (0.01-30 uM) for 30 minutes followed by the addition of 8 nM PDGF BB for 10 minutes. Cells were lysed in 100 mM Tris, pH 7.5, 750 mM NaCl, 0.5% Triton X-100, 10 mM sodium pyrophosphate, 50 mM NaF, 10 ug/ml aprotinin, […] leupeptin, 1 mM phenylmethylsulfonyl fluoride, 1 mM sodium vanadate, and the lysate was cleared by centrifugation at 15,000×g for 5 minutes. Clarified lysates were transferred into a second microtiter plate in which the wells were previously coated with 500 ng/well of 1B5B11 anti-β-PDGFR mAb, and then incubated for two hours at room temperature. […] Wells were washed prior to adding ABTS (Sigma), and the rate of substrate formation was monitored at 650 nm. […]

endogenous β-PDGFR = biological target: T2, endogenous β-PDGFR (Homo sapiens, UniProt P09619); assay: MG63 phosphorylation assay; type: cell-based; conditions: MG63 human osteosarcoma cells, PDGF-BB stimulation in the presence of 45% human plasma; inhibition of PDGF receptor phosphorylation; read-out: MG63 w/human plasma IC50
T2 construct: This assay is for measuring endogenous β-PDGFR phosphorylation in MG63 cells; host or cells: MG63 human osteosarcoma cells
T2 sequence (P09619 33-1106): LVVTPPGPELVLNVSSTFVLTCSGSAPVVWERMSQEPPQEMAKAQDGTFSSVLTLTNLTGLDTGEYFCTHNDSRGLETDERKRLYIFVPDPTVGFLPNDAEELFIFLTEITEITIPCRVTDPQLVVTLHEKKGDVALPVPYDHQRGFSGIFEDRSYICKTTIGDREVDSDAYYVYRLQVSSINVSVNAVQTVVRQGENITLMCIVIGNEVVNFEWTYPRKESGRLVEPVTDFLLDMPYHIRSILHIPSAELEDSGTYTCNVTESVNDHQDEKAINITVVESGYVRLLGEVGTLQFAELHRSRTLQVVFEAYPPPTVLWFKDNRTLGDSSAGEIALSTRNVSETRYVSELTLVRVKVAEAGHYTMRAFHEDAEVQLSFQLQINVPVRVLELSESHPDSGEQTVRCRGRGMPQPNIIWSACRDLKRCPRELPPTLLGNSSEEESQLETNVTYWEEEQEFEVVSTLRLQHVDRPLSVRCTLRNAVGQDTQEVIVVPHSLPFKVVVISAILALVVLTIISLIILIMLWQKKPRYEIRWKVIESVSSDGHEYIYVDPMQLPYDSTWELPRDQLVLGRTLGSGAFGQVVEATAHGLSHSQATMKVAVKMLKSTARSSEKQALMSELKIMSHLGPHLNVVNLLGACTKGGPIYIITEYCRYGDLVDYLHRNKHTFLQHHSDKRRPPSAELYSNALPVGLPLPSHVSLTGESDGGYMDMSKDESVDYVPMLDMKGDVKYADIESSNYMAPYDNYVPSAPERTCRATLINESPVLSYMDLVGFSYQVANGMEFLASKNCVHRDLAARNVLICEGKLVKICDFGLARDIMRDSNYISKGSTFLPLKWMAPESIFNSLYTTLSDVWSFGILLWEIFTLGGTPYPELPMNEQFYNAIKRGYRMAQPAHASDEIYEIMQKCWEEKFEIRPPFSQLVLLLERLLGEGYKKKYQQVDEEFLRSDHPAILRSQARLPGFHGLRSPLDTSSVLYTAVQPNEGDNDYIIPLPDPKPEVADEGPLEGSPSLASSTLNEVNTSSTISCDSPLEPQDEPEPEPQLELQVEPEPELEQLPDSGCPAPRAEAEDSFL

T1 sequence (P09619 33-1106): as above

Row | SMILES | IC50 (human β-PDGFR) [nM] | IC50 (endogenous β-PDGFR) [nM]
1 | COc1cc2c(N3CCN(C(=S)NCc4ccc5c(c4)OCO5)CC3)ncnc2cc1OCCN1CCCCC1 [Example 1] | 50 | 129
2 | COc1cc2c(N3CCN(C(=S)NCc4cnc(C)cn4)CC3)ncnc2cc1OCCN1CCCCC1 [Example 2, {4-[6-methoxy-7-(2-piperidylethoxy)quinazolin-4-yl]piperazinyl}{[(5-methylpyrazin-2-yl)methyl]amino}methane-1-thione] | 20 | 47
